In patent US20250326744A1, “PIPERAZINE DERIVATIVE OR SALT THEREOF, AND PHARMACEUTICAL COMPOSITION” (priority 2022, published 2025):
Where a name gives a salt, the structure may show the parent alone.

Legend:
mexY (EC) strain = experiment: Efflux ability inhibition effect on drug efflux pump MexY (Test Examples 1 and 3): proliferation (OD595) of mexY (EC) strain with EM or LVFX at 1/4 MIC, EC75; format: cell-based, Escherichia coli; settings: Table 51, Test Example 1, 16 to 20 hours culture, OD595; for EC75, mexY (EC) strain, EM: combined with EM at 1/4 MIC; for EC75, mexY (EC) strain, LVFX: combined with LVFX at 1/4 MIC
Procedure: The efflux ability inhibition effect of the test compound on the drug efflux pump was evaluated using the bacterial proliferative ability in the presence of EM or LVFX as an index.
EM is a macrolide antibacterial agent and is a drug that is discharged outside the bacteria by MexB and MexY LVFX is a quinolone antibacterial agent and is a drug that is discharged outside the bacteria by MexB and MexY In a case where the test compound has an efflux ability inhibitory ability against the drug efflux pump, the proliferation of bacteria is suppressed by the combined use of EM or LVFX and the test compound, as compared with the case where EM or LVFX is used alone.
A mutant strain (hereinafter, referred to as an “mexB (EC) strain”) obtained by transferring the genes of the main multidrug efflux system MexAB-OprM of Pseudomonas aeruginosa described in Nature, 2013, Vol. 500, pp. 102 to 106 as a plasmid into Escherichia coli strains in which the acrB and tolC genes of the multidrug efflux system AcrAB-TolC were deleted as described in Journal of Infection and Chemotherapy 2008, Vol. 14, pp. 23 to 29, and a gene transfer strain (hereinafter, referred to as an “mexY (EC) strain”) of another main multidrug efflux system MexXY-OprM of Pseudomonas aeruginosa were used for the evaluation of test compounds.
In the mexB (EC) strain, an expression level of MexB of the drug efflux pump is accelerated, and in the mexY (EC) strain, an expression level of MexY of the drug efflux pump is accelerated.
For culturing each Escherichia coli strain, a 96-well plate (amount of culture medium per well: 100 μL) was used and Luria-Bertani broth (LB) culture medium was used. The inoculation amount of the bacteria was set to 10^4 to 5 CFU/well.
The mexB (EC) strain and the mexY (EC) strain were cultured for 16 to 20 hours in a culture medium to which EM or LVFX and test compounds at various concentrations (0 to 800 μM) were added, and the proliferation of the bacterial strains was evaluated by optical turbidity at 595 nm (OD595). The concentration of the antibacterial agents (EM and LVFX) in the culture medium were each set to ¼ of the minimum inhibitory concentration (MIC) (hereinafter, referred to as ¼ MIC) of the single antibacterial agent.
The proliferation of bacteria in a case where the antibacterial agent was added at the concentration of ¼ MIC in a case where the test compound was not added was measured, and compared with the proliferation of bacteria in a case where the test compound was contained, and the lowest concentration of the test compound at which the proliferation was inhibited by 75% or more was defined as the drug efflux pump inhibitory ability of the test compound as 75% inhibitory effect concentration (EC75).
The drug efflux pump inhibitory ability of each test compound in a case of being used in combination with the antibacterial agent against the mexB (EC) strain and the mexY (EC) strain was evaluated as follows according to the value of EC75. • S: EC75≤[…] • A: 12.5 μM<EC75≤25 μM • B: 25 μM<EC75≤100 μM • C: […]
In the same manner as in Test Example 1, the efflux ability inhibition effect of the test compound on the drug efflux pump was evaluated using the bacterial proliferation ability in the presence of EM or LVFX as an index.

mexB (PA) strain = experiment: Combinational effect with antibacterial agent against Pseudomonas aeruginosa (Test Examples 2 and 4): mexB (PA) strain with LVFX, TC or AZT at 1/4 MIC, EC99; format: cell-based; settings: mexB (PA) strain, Test Example 4; for EC99, combinational effect with AZT, mexB (PA): combined with AZT at 1/4 MIC; for EC99, combinational effect with LVFX, mexB (PA): combined with LVFX at 1/4 MIC; for EC99, combinational effect with TC, mexB (PA): combined with TC at 1/4 MIC
In short: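 P. aeruginosa mexB (PA) strain, lacking MexCD-OprJ, MexEF-OprN and MexXY and overexpressing MexAB-OprM, grown 16–20 h in CAMHB (10^4–5 CFU/well) with LVFX, TC or AZT at ¼ MIC plus test compound at 0–800 μM. Growth read as OD595; EC99 is the lowest compound concentration giving ≥99% growth inhibition.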

S-3769 strain = experiment: Combinational effect with antibacterial agent against Pseudomonas aeruginosa (Test Examples 2 and 4): S-3769 strain with AMK or GM at 1/4 MIC, EC99; format: cell-based; settings: S-3769 strain, Test Example 4; for EC99, combinational effect with AMK, S-3769 strain: combined with AMK at 1/4 MIC; for EC99, combinational effect with GM, S-3769 strain: combined with GM at 1/4 MIC
In short: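 P. aeruginosa S-3769 (clinical isolate, MexY overexpressed) grown 16–20 h in CAMHB, 10^4 to 5 CFU/well, with AMK or GM at ¼ MIC plus test compound 0–800 μM. Growth read as OD595; EC99 is the lowest compound concentration giving ≥99% growth inhibition.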

Row | Structure (SMILES) | EC75, mexY (EC) strain, EM (mexY (EC) strain) | EC75, mexY (EC) strain, LVFX (mexY (EC) strain) | further results
1 | CCOc1cccc(F)c1CN1CCN(C(=O)[C@H](N)C2CCN(CCn3c(=O)ccc4ncc(F)cc43)CC2)CC1 [Example 14, Hydrobromide of (R)-1-(2-(4-(1-amino-2-(4-(2-ethoxy-6-fluorobenzyl)piperazin-1-yl)-2-oxoethyl)piperidin-1-yl)ethyl)-7-fluoro-1,5-naphthyridin-2(1H)-one] | B (25 μM<EC75≤100 μM) | B (25 μM<EC75≤100 μM) | –
2 | CCOc1cccc(F)c1CN1CCN(C(=O)[C@H](N)C2CCN(CCC3CCCC3)CC2)CC1 [Example 41, Hydrobromide of (R)-2-amino-2-(1-(2-cyclopentylethyl)piperidin-4-yl)-1-(4-(2-ethoxy-6-fluorobenzyl)piperazin-1-yl) ethan-1-one] | A (12.5 μM<EC75≤25 μM) | A (12.5 μM<EC75≤25 μM) | –
3 | CCOc1cccc(F)c1CN1CCN(C(=O)[C@H](N)C2CCN(CCC3CCCCC3)CC2)CC1 [Example 47, Hydrobromide of (R)-2-amino-2-(1-(2-cyclohexylethyl)piperidin-4-yl)-1-(4-(2-ethoxy-6-fluorobenzyl)piperazin-1-yl)ethan-1-one] | A (12.5 μM<EC75≤25 μM) | A (12.5 μM<EC75≤25 μM) | –
4 | CCOc1cccc(F)c1CN1CCN(C(=O)[C@H](N)C2CCN(CC(F)c3ccccc3)CC2)CC1 (stereo partly drawn) [Example 59, Hydrobromide of (2R)-2-amino-1-(4-(2-ethoxy-6-fluorobenzyl)piperazin-1-yl)-2-(1-(2-fluoro-2-phenylethyl)piperidin-4-yl) ethan-1-one] | B (25 μM<EC75≤100 μM) | B (25 μM<EC75≤100 μM) | –
5 | CCOc1cccc(F)c1CN1CCN(C(=O)[C@H](N)C2CCN(CCc3cc(Cl)ccc3-c3ccccc3C#N)CC2)CC1 [Example 64, Hydrobromide of (R)-2′-(2-(4-(1-amino-2-(4-(2-ethoxy-6-fluorobenzyl)piperazin-1-yl)-2-oxoethyl)piperidin-1-yl)ethyl)-4′-chloro-[1,1′-biphenyl]-2-carbonitrile] | A (12.5 μM<EC75≤25 μM) | – | –
6 | CCOc1cccc(F)c1CN1CCN(C(=O)[C@H](N)C2CCN(CCC34CC5CC(CC(C5)C3)C4)CC2)CC1 [Example 125] | A (12.5 μM<EC75≤25 μM) | – | –
7 | CCOc1cccc(F)c1CN1CCN(C(=O)[C@H](N)C2CCN(CCC3(C)CCCCC3)CC2)CC1 [Example 126, Hydrochloride of (R)-2-amino-1-(4-(2-ethoxy-6-fluorobenzyl)piperazin-1-yl)-2-(1-(2-(1-methylcyclohexyl)ethyl)piperidin-4-yl)ethan-1-one] | A (12.5 μM<EC75≤25 μM) | A (12.5 μM<EC75≤25 μM) | –
8 | COc1ccccc1CN1CCN(C(=O)[C@H](NCc2ccccc2)C2CCN(CCc3cccc(Cl)c3)CC2)CC1 [Example 142, hydrochloride of (R)-2-(benzylamino)-2-(1-(3-chlorophenethyl)piperidin-4-yl)-1-(4-(2-methoxybenzyl)piperazin-1-yl)ethan-1-one] | B (25 μM<EC75≤100 μM) | B (25 μM<EC75≤100 μM) | –
9 | O=C(CN1CCN(CCc2ccccc2)CC1)N1CCN(CC2CCCCC2)CC1 [Example 210, Hydrochloride of 1-(4-(cyclohexylmethyl)piperazin-1-yl)-2-(4-phenethylpiperazin-1-yl)ethan-1-one] | B (25 μM<EC75≤100 μM) | – | –
10 | COc1ccccc1CN1CCN(C(=O)CN2CCN(CCc3ccoc3)CC2)CC1 [Example 291, 2-(4-(2-(Furan-3-yl)ethyl)piperazin-1-yl)-1-(4-(2-methoxybenzyl)piperazin-1-yl)ethan-1-one and hydrochloride thereof] | B (25 μM<EC75≤100 μM) | – | –
11 | COc1ccccc1CN1CCN(C(=O)C(F)(F)C2CCN(CCc3ccccc3)CC2)CC1 [Example 299, hydrochloride of 2,2-difluoro-1-(4-(2-methoxybenzyl)piperazin-1-yl)-2-(1-phenethylpiperidin-4-yl)ethan-1-one] | B (25 μM<EC75≤100 μM) | B (25 μM<EC75≤100 μM) | –
12 | COc1ccccc1CN1CCN(C(=O)CN2CCC(C(=O)Nc3ccccc3)CC2)CC1 [Example 408, Hydrochloride of 1-(2-(4-(2-methoxybenzyl)piperazin-1-yl)-2-oxoethyl)-N-phenylpiperidine-4-carboxamide] | B (25 μM<EC75≤100 μM) | B (25 μM<EC75≤100 μM) | –
13 | COc1ccccc1CN1CCN(C(=O)CN2CCC(CCc3ccccc3)(NC(N)=O)CC2)CC1 [Example 416, hydrochloride of 1-(1-(2-(4-(2-methoxybenzyl)piperazin-1-yl)-2-oxoethyl)-4-phenethylpiperidin-4-yl)urea] | B (25 μM<EC75≤100 μM) | B (25 μM<EC75≤100 μM) | –
14 | CCSc1ccc(O)cc1CN1CCN(C(=O)[C@H](N)C2CCN(CCc3cc(Cl)ccc3-c3cccc(O)c3Cl)CC2)CC1 [Example 622, Hydrochloride of (R)-2-amino-2-(1-(2-(2′,4-dichloro-3′-hydroxy-[1,1-biphenyl]-2-yl)ethyl)piperidin-4-yl)-1-(4-(2-(ethylthio)-5-hydroxybenzyl)piperazin-1-yl)ethan-1-one] | – | – | EC99, combinational effect with AZT, mexB (PA) (mexB (PA) strain): S (EC99≤12.5 μM); EC99, combinational effect with LVFX, mexB (PA) (mexB (PA) strain): S (EC99≤12.5 μM); EC99, combinational effect with TC, mexB (PA) (mexB (PA) strain): S (EC99≤12.5 μM); EC99, combinational effect with AMK, S-3769 strain (S-3769 strain): S (EC99≤12.5 μM); EC99, combinational effect with GM, S-3769 strain (S-3769 strain): A (12.5 μM<EC99≤25 μM)
15 | CCSc1cc(F)ccc1CN1CCN(C(=O)[C@H](N)C2CCN(CCc3ccc(O)cc3-c3ccccc3)CC2)CC1 [Example 624, Hydrochloride of (R)-2-amino-1-(4-(2-(ethylthio)-4-fluorobenzyl)piperazin-1-yl)-2-(1-(2-(5-hydroxy-[1,1-biphenyl]-2-yl)ethyl)piperidin-4-yl)ethan-1-one] | – | – | EC99, combinational effect with AZT, mexB (PA) (mexB (PA) strain): C (100 μM<EC99); EC99, combinational effect with LVFX, mexB (PA) (mexB (PA) strain): B (25 μM<EC99≤100 μM); EC99, combinational effect with TC, mexB (PA) (mexB (PA) strain): B (25 μM<EC99≤100 μM); EC99, combinational effect with AMK, S-3769 strain (S-3769 strain): B (25 μM<EC99≤100 μM); EC99, combinational effect with GM, S-3769 strain (S-3769 strain): B (25 μM<EC99≤100 μM)
16 | CCOc1cccc(F)c1CN1CCN(C(=O)[C@H](N)C2CCN(CCc3ccc(O)cc3-c3ccccc3)CC2)CC1 [Example 625, Hydrochloride of (R)-2-amino-1-(4-(2-ethoxy-6-fluorobenzyl)piperazin-1-yl)-2-(1-(2-(5-hydroxy-[1,1-biphenyl]-2-yl)ethyl)piperidin-4-yl)ethan-1-one] | – | – | EC99, combinational effect with AZT, mexB (PA) (mexB (PA) strain): C (100 μM<EC99); EC99, combinational effect with LVFX, mexB (PA) (mexB (PA) strain): C (100 μM<EC99); EC99, combinational effect with TC, mexB (PA) (mexB (PA) strain): C (100 μM<EC99); EC99, combinational effect with AMK, S-3769 strain (S-3769 strain): A (12.5 μM<EC99≤25 μM); EC99, combinational effect with GM, S-3769 strain (S-3769 strain): A (12.5 μM<EC99≤25 μM)
